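Each compound was tested at five concentrations against cells in 96-well plates for 48 hours. Here, GI50 denotes the concentration required for 50% inhibition of growth. Definition used: TGI = concentration required for complete inhibition of growth.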
Tests used:
Test in all cases: growth of human tumour cells (NCI), 48 h
OVCAR-5 ovarian = system: OVCAR-5 ovarian
M14 melanoma = system: M14 melanoma
NCI-H460 lung = system: NCI-H460 lung
SK-MEL-2 melanoma = system: SK-MEL-2 melanoma
DU-145 prostate = system: DU-145 prostate
NCI-H23 lung = system: NCI-H23 lung
HCT-116 colon = system: HCT-116 colon
HCT-15 colon = system: HCT-15 colon
HOP-62 NSCLC = system: HOP-62 NSCLC
ACHN renal = system: ACHN renal

SMILES | TGI (OVCAR-5 ovarian) | TGI (M14 melanoma) | TGI (NCI-H460 lung) | TGI (SK-MEL-2 melanoma) | TGI (DU-145 prostate) | TGI (NCI-H23 lung) | TGI (HCT-116 colon) | TGI (HCT-15 colon) | TGI (HOP-62 NSCLC) | TGI (ACHN renal) | GI50 (OVCAR-5 ovarian) | GI50 (M14 melanoma) | GI50 (NCI-H460 lung) | GI50 (SK-MEL-2 melanoma) | GI50 (DU-145 prostate) | GI50 (NCI-H23 lung) | GI50 (HCT-116 colon) | GI50 (HCT-15 colon) | GI50 (HOP-62 NSCLC) | GI50 (ACHN renal)
CCCCCCCCCCCCCCCC(=O)OC1C(O)C(O)C(O)C(O)C12CO2 (stereo not given) | > 100 µM | > 100 µM | > 100 µM | > 100 µM | > 100 µM | > 100 µM | > 100 µM | 63.5 µM | > 100 µM | > 100 µM |  |  |  |  |  |  |  |  |  | 
C#CCNC(=O)CC[C@@H](C)[C@H]1CC[C@H]2[C@@H]3CC[C@@H]4CC(=O)CC[C@]4(C)[C@H]3CC[C@]12C | 47.1 µM | 37.2 µM | 51.2 µM | 35.8 µM | 35.1 µM | 75.7 µM | 52 µM | 36.3 µM | 40.4 µM | 32.4 µM | 22.1 µM | 14.6 µM | 22 µM | 16.9 µM | 14.8 µM | 19.6 µM | 12.9 µM | 12.1 µM | 16.6 µM | 14.9 µM
COCCCNc1c2ccccc2nc2ccccc12 | 6.93 µM | 3.89 µM | 3.55 µM | 4.89 µM | 9.75 µM | 10.3 µM | 15.7 µM | 3.38 µM | 12.2 µM | 2.39 µM |  |  |  |  |  |  |  |  |  | 
C/C(=N\O)c1cccc(Nc2c3ccccc3nc3occc23)c1 | > 100 µM | > 100 µM | > 100 µM | 25.2 µM | 59.2 µM | 49.4 µM | 18.8 µM | > 100 µM | 17.5 µM | 38.6 µM |  |  |  |  |  |  |  |  |  | 
CC(C)c1c(O[Si](C(C)C)(C(C)C)C(C)C)cc2c(c1O)CC[C@H]1C(C)(C)CCC[C@]21C | > 100 µM | > 100 µM | > 100 µM | > 100 µM | > 100 µM | > 100 µM | > 100 µM | > 100 µM | > 100 µM | > 100 µM |  |  |  |  |  |  |  |  |  | 
O=C(/C=C/c1cccc(Br)c1)N1CCN(CCOC(c2ccccc2)c2ccccc2)CC1 | > 100 µM | > 100 µM | > 100 µM | > 100 µM | > 100 µM | > 100 µM | > 100 µM | > 100 µM | > 100 µM | > 100 µM |  |  |  |  |  |  |  |  |  | 
CCOC(=O)c1cc([N+](=O)[O-])c(Sc2ncnc3nc[nH]c23)c([N+](=O)[O-])c1 | 5.15 µM | 15 µM | 25.6 µM | 24.6 µM | 29.2 µM | 28.7 µM | 3.94 µM | 6.57 µM | 24.8 µM | 19.9 µM |  |  |  |  |  |  |  |  |  | 
CC(C)C(/C=C/c1ccc(Cl)cc1)=N\NC(=O)N/N=C(/C=C/c1ccc(Cl)cc1)C(C)C | > 100 µM | 60 µM | 54.8 µM | 59.8 µM | > 100 µM | 55.9 µM | 39 µM | > 100 µM | 47.3 µM | 87.3 µM |  |  |  |  |  |  |  |  |  | 
COc1ccc2nc3cc(Cl)ccc3c(NCCCCCC(=O)NC(COc3ccc4ccc5cccnc5c4n3)COc3ccc4ccc5cccnc5c4n3)c2c1 | 47.9 µM | 57.7 µM | 19.1 µM | 45.1 µM | 23.6 µM | 48.6 µM | 23.5 µM | > 100 µM | > 100 µM | 28.9 µM |  |  |  |  |  |  |  |  |  | 
Nc1ncnc2c1ccn2-c1cccc(NC(=O)c2ccc(N3CCOCC3)c(C(F)(F)F)c2)c1 | 21.1 µM | 10.6 µM | 9.33 µM | 5.1 µM | 12.1 µM | 13.6 µM | 10.3 µM | 10.4 µM | 15.5 µM | 10.5 µM | 3 µM | 3.33 µM | 2.92 µM | 1.83 µM | 3.2 µM | 2.95 µM | 2.71 µM | 2.74 µM | 3.62 µM | 2.88 µM
Cc1cccc(N=N/C(=N\NC(=O)c2cc(Cl)ccc2O)c2ccc(N(CCC#N)CCC#N)cc2C)c1 | > 100 µM | > 100 µM | 79.7 µM | > 100 µM | > 100 µM | > 100 µM | > 100 µM | 88.2 µM | > 100 µM | > 100 µM |  |  |  |  |  |  |  |  |  | 
COc1cc(OC)c(/C=N\Nc2nc3ccccc3c(=O)n2-c2ccccc2)c(OC)c1 | > 100 µM | 84.6 µM | > 77.8 µM | 64 µM | > 94.1 µM | > 100 µM | 40.6 µM | > 100 µM | 47.7 µM | 38.8 µM |  |  |  |  |  |  |  |  |  | 
C#CCn1c(=O)ccn(/C(=C/C(=O)OCC)C(=O)OCC)c1=O | 21.9 µM | 11.8 µM | 10.3 µM | 30.2 µM | 30.7 µM | 25.1 µM | 18.7 µM | 7.8 µM | 31.8 µM | 3.21 µM |  |  |  |  |  |  |  |  |  | 
CC(=O)Oc1cc(-c2oc3cc(OC(C)=O)c(C4OC(CO)C(O)C(O)C4O)c(OC(C)=O)c3c(=O)c2O)c(OC(C)=O)cc1O (stereo not given) | > 100 µM | > 100 µM | > 100 µM | > 100 µM | > 100 µM | > 100 µM | > 100 µM | > 100 µM | > 100 µM | > 100 µM |  |  |  |  |  |  |  |  |  | 
CCCCCCCCCCCCc1ccsc1-c1ccc(-c2ccc(-c3sccc3CCCCCCCCCCCC)s2)s1 | > 100 µM | > 100 µM | > 100 µM | > 100 µM | > 100 µM | > 100 µM | > 100 µM | > 100 µM | > 100 µM | > 100 µM |  |  |  |  |  |  |  |  |  | 
O=C(OCC(OC(=O)c1ccccc1)C1CC(C2(O)CCCCC2)C(=O)O1)c1ccccc1 (stereo not given) | > 25 µM | > 25 µM | > 25 µM | > 25 µM | > 25 µM | 7.85 µM | > 25 µM | > 25 µM | > 25 µM | > 25 µM |  |  |  |  |  |  |  |  |  | 

Reference: PubChem BioAssay (NCI)
